What was measured:
L6-myotubes [1] = experiment: Measurement of intracellular cAMP levels in differentiated L6-myotubes (Biological Example 3); assay type: cell-based; details: for Emax at 10 µM: 0.25 h
In short: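 Intracellular cAMP quantified by AlphaScreen after ethanol extraction and lysis of L6 myotubes. Cells were serum-starved overnight, then exposed for 15 min to compound (final 1×10^−5 M) or isoprenaline in IBMX-containing (1 mM) HBSS buffer, pH 7.4.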

L6-myotubes [2] = experiment: Glucose uptake in differentiated L6-myotubes (Biological Example 2); assay type: cell-based; details: for Emax at 10 µM: read-out: Biological example 2 (GU)
In short: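 Uptake was quantified as radioactivity in 0.2 M NaOH lysates after a 10 min pulse of 50 nM ^3H-2-deoxyglucose. The pulse followed two agonist exposures at 1×10^−5 M final (isoprenaline or test compound): 1 h 40 min, then 20 min in glucose-free medium after washing. L6 myotubes had been starved overnight in medium with 0.5% fatty-acid-free BSA.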

[3] = intracellular cAMP, compound at 10 μM relative to isoproterenol at 10 μM
[4] = glucose uptake, compound at 10 μM relative to isoproterenol at 10 μM
[5] = intracellular cAMP in differentiated L6-myotubes, compound at 10 μM, activity relative to isoproterenol at 10 μM
[6] = glucose uptake in differentiated L6-myotubes, compound at 10 μM, activity relative to isoproterenol at 10 μM

Row | Compound | Emax at 10 µM (L6-myotubes [1]; [3]) [%] | Emax at 10 µM (L6-myotubes [2]; [4]) [%] | Emax at 10 µM (L6-myotubes [1]; [5]) [%] | Emax at 10 µM (L6-myotubes [2]; [6]) [%] | other results
1 | CC12CCC([C@@H](O)c3cccc(F)c3)(CC1)N2 [Compound 178, (S)-(m-fluorophenyl)(4-methyl-7-azabicyclo[[2.2.1]]hept-1-yl)methanol] | < 25 | 25 to 50 |  |  | 
2 | CCC[C@@H]1CC[C@H]([C@@H](O)c2cccc(F)c2)N1 [Compound 126] | < 25 | 25 to 50 |  |  | 
3 | CC1(C)CC[C@H]([C@@H](O)c2cccc(Cl)c2)N1 [Compound 153, (S)-[(R)-5,5-dimethyl-2-pyrrolidinyl](m-chlorophenyl)methanol] | < 25 | 25 to 50 |  |  | 
4 | CC(C)(C)NC[C@H](O)c1cccc(F)c1 [Compound 54, (R)-2-(tert-butylamino)-1-(m-fluorophenyl)-1-ethanol] | < 25 | > 75 |  |  | 
5 | CC(C)(C[C@H]1CC[C@@H](N)CC1)NC[C@H](O)c1cncc(F)c1 [Compound 466] |  |  | < 25 | 50 to 75 | 
6 | COc1ccc(C[C@@H]2CC[C@H]([C@@H](O)c3cccc(F)c3)N2)cc1 [Compound 372, (S)-{(2R,5S)-5-[(p-methoxyphenyl)methyl]-2-pyrrolidinyl}(m-fluorophenyl)methanol] |  |  | < 25 | > 75 | 
7 | CC(C)(C[C@H]1CC[C@H](NC(=O)c2ccccc2)CC1)NC[C@H](O)c1cccc(F)c1 [Compound 384] |  |  | > 75 | > 75 | 
8 | CO[C@H]1CC[C@@H](C(C)(C)NC[C@H](O)c2cncc(F)c2)CC1 [Compound 252, (R)-1-(5-fluoro-3-pyridyl)-2-{1-methyl-1-[(1s,4S)-4-methoxycyclohexyl]ethylamino}-1-ethanol] |  |  | < 25 | < 25 | 
9 | CC(C)(CC[C@H]1CC[C@@H](C(=O)O)CC1)NC[C@H](O)c1cccc(F)c1 [Compound 352, (1S,4s)-4-{3-[(R)-2-(m-fluorophenyl)-2-hydroxyethylamino]-3-methylbutyl} cyclohexanecarboxylic acid] |  |  | < 25 | 25 to 50 | 
10 | CC12CC(C1)[C@H]([C@H](O)c1cccc(N)c1F)N2 [Compound 241, (R)-{(R)-1-methyl-2-azabicyclo[2.1.1]hex-3-yl}(3-amino-2-fluorophenyl)methanol] |  |  | < 25 | > 75 | 
11 | CC1(C)CCC[C@@H]([C@H](O)c2ccccc2F)N1 [Compound 193] | 25 to 50 | > 75 |  |  | 
12 | CC(C)(C[C@H]1CC[C@@H](NS(C)(=O)=O)CC1)NC[C@H](O)c1cccc(C(F)(F)F)n1 [Compound 463] |  |  | < 25 | 50 to 75 | 
13 | O[C@@H](CNCCC[C@H]1CC[C@H](OCc2ccccc2)CC1)c1cncc(F)c1 [Compound 276, (R)-1-(5-fluoro-3-pyridyl)-2-{3-[(1r,4S)-4-(benzyloxy)cyclohexyl]propylamino}-1-ethanol] |  |  | < 25 | 25 to 50 | 
14 | CC12CC(C1)[C@H]([C@H](O)c1cccc(F)c1)N2 [Compound 186] | 50 to 75 | > 75 |  |  | 
15 | CO[C@H]1CC[C@H](CC(C)(C)NC[C@H](O)c2cccc(F)c2)CC1 [Compound 249, (R)-2-{1,1-dimethyl-2-[(1r,4R)-4-methoxycyclohexyl]ethylamino}-1-(m-fluorophenyl)-1-ethanol] |  |  | < 25 | > 75 | 
16 | COC(=O)[C@H]1CC[C@@H](CC(C)(C)NC[C@H](O)c2cccc(F)c2)CC1 [Compound 327, methyl (1S,4s)-4-{2-[(R)-2-(m-fluorophenyl)-2-hydroxyethylamino]-2-methylpropyl} cyclohexanecarboxylate] |  |  | < 25 | > 75 | 
17 | Oc1ccc(C(O)CNCCC2CC2)cc1 (centres unmarked) [Compound 24, p-[2-(2-cyclopropylethylamino)-1-hydroxyethyl]phenol] | < 25 | 50 to 75 |  |  | 
18 | O[C@@H](CNCC[C@H]1CC[C@@H](O)CC1)c1cncc(F)c1 [Compound 293, (R)-1-(5-fluoro-3-pyridyl)-2-{2-[(1s,4S)-4-hydroxycyclohexyl]ethylamino}-1-ethanol] |  |  | < 25 | 25 to 50 | 
19 | CCCCNC[C@H](O)c1cnc(N)s1 [Compound 75, (S)-1-(2-amino-1,3-thiazol-5-yl)-2-(butylamino)-1-ethanol] | < 25 | 25 to 50 |  |  | 
20 | O[C@@H](CNC[C@H]1CC[C@@H](OCc2ccccc2)CC1)c1cncc(F)c1 [Compound 263, (R)-1-(5-fluoro-3-pyridyl)-2-({[(1s,4S)-4-(benzyloxy)cyclohexyl]methyl}amino)-1-ethanol] |  |  | < 25 | > 75 | 

Row | Compound | Emax at 10 µM (L6-myotubes [1]; [3]) [%] | Emax at 10 µM (L6-myotubes [2]; [4]) [%] | Emax at 10 µM (L6-myotubes [1]; [5]) [%] | Emax at 10 µM (L6-myotubes [2]; [6]) [%] | other results
21 | COC(=O)[C@H]1CC[C@@H](CCC(C)(C)NC[C@H](O)c2cncc(F)c2)CC1 [Compound 349, methyl (1S,4s)-4-{3-[(R)-2-(5-fluoro-3-pyridyl)-2-hydroxyethylamino]-3-methylbutyl} cyclohexanecarboxylate] |  |  | 25 to 50 | > 75 | 
22 | CCCC(C)NCC(O)c1cc(Cl)c(O)c(Cl)c1 (centres unmarked) [Compound 25, 1-(3,5-dichloro-4-hydroxyphenyl)-2-(1-methylbutylamino)-1-ethanol] | < 25 | < 25 |  |  | 
23 | CO[C@H]1CC[C@H](C[C@@H]2CC[C@H]([C@@H](O)c3cncc(F)c3)N2)CC1 [Compound 332] |  |  | < 25 | 25 to 50 | 
24 | O[C@@H](c1cccc(F)c1)[C@H]1CCC2(CCCC2)N1 [Compound 169] | < 25 | < 25 |  |  | 
25 | CC(C)(C[C@H]1CC[C@@H](NS(=O)(=O)C(F)(F)F)CC1)NC[C@H](O)c1cncc(F)c1 [Compound 522] |  |  | < 25 | > 75 | 
26 | CC1(C)CCC[C@@H]([C@H](O)c2cccc(F)c2)N1 [Compound 190] | < 25 | > 75 |  |  | 
27 | CO[C@H]1CCC[C@@H](C(C)(C)NC[C@H](O)c2cncc(F)c2)C1 [Compound 270, (R)-2-{1-[(1R,3S)-3-methoxycyclohexyl]-1-methylethylamino}-1-(5-fluoro-3-pyridyl)-1-ethanol] |  |  | 50 to 75 | > 75 | 
28 | O[C@H](c1cncc(F)c1)C12CCC(C/C=C/c3ccccc3)(CC1)N2 [Compound 530, (R)-{4-[(E)-3-phenyl-2-propenyl]-7-azabicyclo[[2.2.1]]hept-1-yl}(5-fluoro-3-pyridyl)methanol] |  |  | 25 to 50 | > 75 | 
29 | CCC[C@@H]1CC[C@H]([C@H](O)c2cccc(Cl)c2)N1 [Compound 141, (R)-[(2R,5R)-5-propyl-2-pyrrolidinyl](m-chlorophenyl)methanol] | < 25 | 50 to 75 |  |  | 
30 | O[C@H](c1cccc(F)c1)C12CCC(CCc3ccc(OC(F)(F)F)cc3)(CC1)N2 [Compound 546, (R)-(m-fluorophenyl){4-[2-(p-trifluoromethoxyphenyl)ethyl]-7-azabicyclo[[2.2.1]]hept-1-yl}methanol] |  |  | < 25 | < 25 | 
31 | CC(=O)N(C)[C@H]1CC[C@@H](CC(C)(C)NC[C@H](O)c2cncc(F)c2)CC1 [Compound 492] |  |  |  |  | Biological example 3 (CAMP) (L6-myotubes [1]; [5]): − (if it less than 25% it is denoted with −); Biological example 2 (GU) (L6-myotubes [2]; [6]): + (if it is between 50 and 25% it is denoted with +)
32 | CO[C@@H]1CCC[C@H](C(C)(C)NC[C@H](O)c2cccc(F)c2)C1 [Compound 255, (R)-2-{1-[(1S,3R)-3-methoxycyclohexyl]-1-methylethylamino}-1-(m-fluorophenyl)-1-ethanol] |  |  | < 25 | > 75 | 
33 | Oc1ccc(C(O)CNCCCC2CC2)cc1 (centres unmarked) [Compound 30, 2-(3-cyclopropylpropylamino) -1-(p-hydroxyphenyl)-1-ethanol] | < 25 | > 75 |  |  | 
34 | CC(=O)N[C@H]1CC[C@@H](C[C@@H]2CC[C@H]([C@@H](O)c3cccc(F)c3)N2)CC1 [Compound 483] |  |  | < 25 | < 25 | 
35 | CC1(C)CCC[C@H]([C@@H](O)c2cccc(F)c2)N1 [Compound 101] | < 25 | 25 to 50 |  |  | 
36 | CC12CC(C1)[C@@H]([C@H](O)c1cncc(F)c1)N2 [Compound 223, (R)-{(S)-1-methyl-2-azabicyclo[[2.1.1]]hex-3-yl}(5-fluoro-3-pyridyl)methanol] |  |  | < 25 | 25 to 50 | 
37 | CC12CC(C1)[C@@H]([C@H](O)c1cccc(N)c1F)N2 [Compound 244, (R)-{(S)-1-methyl-2-azabicyclo[[2.1.1]]hex-3-yl}(3-amino-2-fluorophenyl)methanol] |  |  | < 25 | 50 to 75 | 
38 | CS(=O)(=O)N(Cc1ccccc1)[C@H]1CC[C@H](C[C@@H]2CC[C@H]([C@@H](O)c3cccc(F)c3)N2)CC1 [Compound 503, (S)-[(2R,5S)-5-({(1r,4S)-4-[(benzyl)-N-mesylamino]cyclohexyl}methyl)-2-pyrrolidinyl](m-fluorophenyl)methanol] |  |  | < 25 | < 25 | 
39 | CCC[C@H]1CCC[C@H]([C@H](O)c2cncc(F)c2)N1 [Compound 140] | < 25 | < 25 |  |  | 
40 | CCC[C@H]1CCC[C@H]([C@H](O)c2ccc(F)c(F)c2)N1 [Compound 67, (R)-[(2R,6S)-6-propyl-2-piperidyl](3,4-difluorophenyl)methanol] | < 25 | 25 to 50 |  |  | 

Source: patent publication US20260216294A1, “BETA 2-ADRENERGIC RECEPTOR AGONISTS FOR TREATMENT OR PREVENTION OF MUSCLE WASTING” (ATROGI AB, priority 2023, published 2026)
